The structures appear in SMILES notation.

The values that follow come from ChEMBL document CHEMBL5113402, “Inhibition of cytochrome P450 monooxygenase-catalyzed oxylipin formation by flavonoids: Evaluation of structure-activity relationship towards CYP4F2-selective inhibitors” (Eur J Med Chem, 2022).

The target of series [1] is CYP450 (EpETrE formation) (Homo sapiens, UniProt P04798+P05177+P05181+P08684+P10632+P10635+P11509+P11712+P13584+P20813+P20815+P20853+P24462+P24903+P33260+P33261+P51589+P78329+P98187+Q02928+Q08477+Q16678+Q16696+Q5TCH4+Q6VVX0+Q7Z449+Q8TAV3+Q96SQ9+Q9HB55). The experiment in a line: Inhibition of CYP450 in human liver microsomes assessed as inhibition of EpETrE formation at 10 uM in presence of arachidonic acid and NADPH by multi-enzyme assay based LC-MS/MS analysis relative to control. In kind it is ADME, Microsome. As to conditions: probe arachidonic acid.

Series [2] is described as follows: Apparent permeability of the compound in human Caco-2 cells. The format is ADME, cell-based. (Caco-2 cells form a polarised layer with tight junctions and transporters.)
For a further series, the target named is T1, Cytochrome P450 4F2 (Homo sapiens, UniProt P78329).
T1 sequence (P78329 whole entry): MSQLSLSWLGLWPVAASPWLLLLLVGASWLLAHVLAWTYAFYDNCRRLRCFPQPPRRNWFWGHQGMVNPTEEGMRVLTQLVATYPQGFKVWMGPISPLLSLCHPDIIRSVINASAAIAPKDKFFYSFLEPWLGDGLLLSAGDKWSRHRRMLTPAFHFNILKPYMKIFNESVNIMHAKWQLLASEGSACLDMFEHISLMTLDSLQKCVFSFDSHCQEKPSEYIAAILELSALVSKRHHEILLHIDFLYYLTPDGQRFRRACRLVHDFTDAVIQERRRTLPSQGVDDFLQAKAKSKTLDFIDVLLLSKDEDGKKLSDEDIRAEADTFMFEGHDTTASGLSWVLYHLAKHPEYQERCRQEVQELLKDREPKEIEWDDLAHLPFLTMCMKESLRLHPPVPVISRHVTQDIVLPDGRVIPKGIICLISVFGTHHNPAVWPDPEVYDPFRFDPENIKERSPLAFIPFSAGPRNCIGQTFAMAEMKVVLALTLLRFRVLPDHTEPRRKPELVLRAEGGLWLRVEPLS
The experiment in a line: Inhibition of recombinant human CYP4F2 expressed in baculovirus-infected insect cells in presence of arachidonic acid and NADPH incubated for 15 mins by jump-dilution assay. The format is ADME.

For series [3], the target named is CYP450 (20-HETE formation) (Homo sapiens, UniProt P04798+P05177+P05181+P08684+P10632+P10635+P11509+P11712+P13584+P20813+P20815+P20853+P24462+P24903+P33260+P33261+P51589+P78329+P98187+Q02928+Q08477+Q16678+Q16696+Q5TCH4+Q6VVX0+Q7Z449+Q8TAV3+Q96SQ9+Q9HB55). The experiment in a line: Inhibition of CYP450 in human liver microsomes assessed as inhibition of 20-HETE formation at 10 uM in presence of arachidonic acid and NADPH by multi-enzyme assay based LC-MS/MS analysis relative to control. In kind it is ADME, Microsome. To be noted: probe arachidonic acid. In general terms: Liver microsomes are vesicles of endoplasmic reticulum, rich in cytochrome P450 enzymes.

The species entered for the next series is Homo sapiens. Description: Selectivity index, log ratio of Inhibition of CYP450 in human liver microsomes assessed as inhibition of EpETrE formation in presence of arachidonic acid to Inhibition of CYP450 in human liver microsomes assessed as inhibition of 20-HETE formation in presence of arachidonic acid.
Series [4] in a line: Drug recovery in human liver microsomes assessed as UDPGA-fortified conjugation recovery in presence of arachidonic acid incubated for 30 mins. In kind it is ADME, Microsome. As to conditions: read-out: Drug recovery.
The next series concerns the target T2, Cytochrome P450 2J2 (Homo sapiens, UniProt P51589).
T2 sequence (P51589 whole entry): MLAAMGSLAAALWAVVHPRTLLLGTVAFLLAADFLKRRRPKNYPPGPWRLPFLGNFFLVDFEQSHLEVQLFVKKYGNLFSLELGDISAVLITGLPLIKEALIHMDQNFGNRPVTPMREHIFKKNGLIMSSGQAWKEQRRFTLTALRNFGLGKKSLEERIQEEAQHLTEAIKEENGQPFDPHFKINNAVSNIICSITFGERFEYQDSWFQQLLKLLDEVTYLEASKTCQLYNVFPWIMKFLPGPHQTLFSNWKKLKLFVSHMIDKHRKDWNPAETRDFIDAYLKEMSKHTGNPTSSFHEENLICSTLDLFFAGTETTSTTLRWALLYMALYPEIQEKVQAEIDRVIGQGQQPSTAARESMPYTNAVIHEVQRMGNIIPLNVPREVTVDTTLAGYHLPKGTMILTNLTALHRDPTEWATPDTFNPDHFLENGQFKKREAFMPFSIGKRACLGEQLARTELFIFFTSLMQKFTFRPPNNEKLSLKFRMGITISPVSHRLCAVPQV
The experiment in a line: Inhibition of recombinant human CYP2J2 expressed in baculovirus-infected insect cells in presence of arachidonic acid and NADPH incubated for 15 mins by jump-dilution assay relative to control. In kind it is ADME.

Series [5] is described as follows: Drug recovery in human HCT-116 cells incubated for 24 hrs. In kind it is ADME, cell-based. To be noted: read-out: Drug recovery.
Series [6] is described as follows: Octanol-water partition coefficient, logP of the compound incubated for 1 hr by HPLC analysis. The format is physicochemical.

For `O=c1cc(-c2ccc(C(F)(F)F)cc2)oc2ccccc12`, the inhibition at 10 µM in [1] was below 15%; in series [3], 53%. Also, in series [2], the Papp turned out to be 4.1 ×10⁻⁶ cm/s. Also, the results for the IC50 on Cytochrome P450 4F2 and at Cytochrome P450 2J2 were 0.87 µM and 50 µM, respectively. In addition, the log(ratio) in the series filed under Homo sapiens came to 0.58. In series [4], the remaining at 0.5 h was above 95%. Besides, the remaining at 24 h in series [5] stood at 89%. This compound also displayed a logP at 1 h in series [6] of 4.06.

The inhibition is the change of the read-out against control, counted positive when it falls. As a reminder, the Papp is a coefficient for how fast a substance crosses the barrier. A word on the IC50: it is the concentration at which inhibition is half-maximal. Broadly, the logP is the decadic logarithm of the partition coefficient of the neutral form, usually between octanol and water.
